Assays:
Format in all cases: in vivo
[1] = system: Alopecurus myosuroides; test: greenhouse herbicidal test, post-emergence treatment; settings: post-emergence method, application rate 2000 g/ha, scale from 0 to 100, test period 2 to 4 weeks
Description: (§1) The seeds of the test plants were sown separately for each species. For the post-emergence treatment, the test plants were first grown to a height of 3 to 15 cm, depending on the plant habit, and only then treated with the active ingredients which had been suspended or emulsified in water. For this purpose, the test plants were either sown directly and grown in the same containers, or they were first grown separately as seedlings and transplanted into the test containers a few days prior to treatment. Depending on the species, the plants were kept at 10-25° C. or 20-35° C., respectively. The test period extended over 2 to 4 weeks. During this time, the plants were tended, and their response to the individual treatments was evaluated. Evaluation was carried out using a scale from 0 to 100. 100 means no emergence of the plants, or complete destruction of at least the aerial moieties, and 0 means no damage, or normal course of growth. A good herbicidal activity is given at values of at least 70 and a very good herbicidal activity is given at values of at least 85. The plants used in the greenhouse experiments were of the following species: [table]

[2] = system: Setaria viridis; test: as above; settings: post-emergence method, scale from 0 to 100, test period 2 to 4 weeks
Description: as §1

[3] = system: Echinocloa crus-galli; test: as above; settings: post-emergence method, scale from 0 to 100, test period 2 to 4 weeks
Description: as §1

[4] = system: Echinocloa crus-galli; test: greenhouse herbicidal test, pre-emergence treatment; settings: pre-emergence method, scale from 0 to 100, test period 2 to 4 weeks
Description: (§2) The seeds of the test plants were sown separately for each species. For the pre-emergence treatment, the active ingredients, which had been suspended or emulsified in water, were applied directly after sowing by means of finely distributing nozzles. The containers were irrigated gently to promote germination and growth and subsequently covered with transparent plastic hoods until the plants had rooted. This cover caused uniform germination of the test plants, unless this had been impaired by the active ingredients. Depending on the species, the plants were kept at 10-25° C. or 20-35° C., respectively. The test period extended over 2 to 4 weeks. During this time, the plants were tended, and their response to the individual treatments was evaluated. Evaluation was carried out using a scale from 0 to 100. 100 means no emergence of the plants, or complete destruction of at least the aerial moieties, and 0 means no damage, or normal course of growth. A good herbicidal activity is given at values of at least 70 and a very good herbicidal activity is given at values of at least 85. The plants used in the greenhouse experiments were of the following species: [table]

[5] = system: Apera spica-venti; test: as above; settings: pre-emergence method, application rate 2000 g/ha, scale from 0 to 100, test period 2 to 4 weeks
Description: as §2

[6] = system: Avena fatua; test: greenhouse herbicidal test, post-emergence treatment; settings: post-emergence method, application rate 2000 g/ha, scale from 0 to 100, test period 2 to 4 weeks
Description: as §1

Compound	herbicidal activity against ALOMY [1]	herbicidal activity against ECHCG ([3]; application rate 2000 g/ha)	herbicidal activity against APESV [5]	herbicidal activity against ECHCG ([4]; application rate 2000 g/ha)	herbicidal activity against AVEFA [6]	other results
OC(Cc1nc(C2CC2)ncc1-c1ncccc1Cl)c1ccccc1 (centres unmarked) [Ex.36]	very good (a very good herbicidal activity is given at values of at least 85)	very good (a very good herbicidal activity is given at values of at least 85)				herbicidal activity against SETVI ([2]; application rate 2000 g/ha): very good (a very good herbicidal activity is given at values of at least 85)
Cc1nc(C2CC2)ncc1-c1cc(Br)sc1Br [Ex.15]						herbicidal activity against ECHCG ([4]; application rate 500 g/ha): good (A good herbicidal activity is given at values of at least 70)
Clc1cccnc1-c1cnc(C2CC2)nc1C=Cc1ccoc1 [Ex.39]	good (A good herbicidal activity is given at values of at least 70)	very good (a very good herbicidal activity is given at values of at least 85)	very good (a very good herbicidal activity is given at values of at least 85)	very good (a very good herbicidal activity is given at values of at least 85)		
Cc1occc1-c1nc(C2CC2)ncc1-c1ncccc1Br [Ex.12]	good (A good herbicidal activity is given at values of at least 70)	good (A good herbicidal activity is given at values of at least 70)	very good (a very good herbicidal activity is given at values of at least 85)		good (A good herbicidal activity is given at values of at least 70)	
CCC=Cc1nc(C2CC2)ncc1-c1ncccc1Cl [Ex.45]	good (A good herbicidal activity is given at values of at least 70)		good (A good herbicidal activity is given at values of at least 70)	very good (a very good herbicidal activity is given at values of at least 85)		
Clc1cccnc1-c1cnc(C2CC2)nc1/C=C/c1ccco1 [Ex.25]	very good (a very good herbicidal activity is given at values of at least 85)	very good (a very good herbicidal activity is given at values of at least 85)	very good (a very good herbicidal activity is given at values of at least 85)	very good (a very good herbicidal activity is given at values of at least 85)		herbicidal activity against SETVI ([2]; application rate 2000 g/ha): very good (a very good herbicidal activity is given at values of at least 85)
Brc1ccsc1-c1cnc(C2CC2)nc1-c1ccco1 [Ex.6]						herbicidal activity against SETVI ([2]; application rate 1000 g/ha): very good (a very good herbicidal activity is given at values of at least 85)
Cc1ccoc1-c1nc(C2CC2)ncc1-c1ncccc1Br [Ex.18]		good (A good herbicidal activity is given at values of at least 70)			very good (a very good herbicidal activity is given at values of at least 85)	
Clc1cccnc1-c1cnc(C2CC2)nc1C=C1CCCCC1 [Ex.42]		good (A good herbicidal activity is given at values of at least 70)				
Cc1ccc(-c2nc(C3CC3)ncc2-c2ncccc2Br)o1 [Ex.17]			very good (a very good herbicidal activity is given at values of at least 85)	very good (a very good herbicidal activity is given at values of at least 85)	very good (a very good herbicidal activity is given at values of at least 85)	
Fc1cccnc1-c1cnc(C2CC2)nc1-c1ccoc1 [Ex.11]						herbicidal activity against ECHCG ([3]; application rate 1000 g/ha): good (A good herbicidal activity is given at values of at least 70)
Clc1cccnc1-c1cnc(C2CC2)nc1-c1ccoc1 [Ex.27]	very good (a very good herbicidal activity is given at values of at least 85)	very good (a very good herbicidal activity is given at values of at least 85)	very good (a very good herbicidal activity is given at values of at least 85)	very good (a very good herbicidal activity is given at values of at least 85)	very good (a very good herbicidal activity is given at values of at least 85)	
Clc1cccnc1-c1cnc(C2CC2)nc1C=C1CCCC1 [Ex.28]	very good (a very good herbicidal activity is given at values of at least 85)	very good (a very good herbicidal activity is given at values of at least 85)	very good (a very good herbicidal activity is given at values of at least 85)	very good (a very good herbicidal activity is given at values of at least 85)	good (A good herbicidal activity is given at values of at least 70)	
Clc1cccnc1-c1cnc(C2CC2)nc1C=Cc1cccs1 [Ex.35]	very good (a very good herbicidal activity is given at values of at least 85)		very good (a very good herbicidal activity is given at values of at least 85)	very good (a very good herbicidal activity is given at values of at least 85)	good (A good herbicidal activity is given at values of at least 70)	herbicidal activity against SETVI ([2]; application rate 2000 g/ha): very good (a very good herbicidal activity is given at values of at least 85)
Fc1cccnc1-c1cnc(C2CC2)nc1-c1ccco1 [Ex.9]		good (A good herbicidal activity is given at values of at least 70)				
C/C=C/c1nc(C2CC2)ncc1-c1ncccc1Cl [Ex.30]	very good (a very good herbicidal activity is given at values of at least 85)	good (A good herbicidal activity is given at values of at least 70)	very good (a very good herbicidal activity is given at values of at least 85)	very good (a very good herbicidal activity is given at values of at least 85)		
OC(c1ccccc1)c1nc(C2CC2)ncc1-c1ccccn1 (centres unmarked) [Ex. 14]						herbicidal activity against SETVI ([2]; application rate 2000 g/ha): very good (a very good herbicidal activity is given at values of at least 85)
Cc1occc1-c1nc(C2CC2)ncc1-c1ncccc1F [Ex.13]		good (A good herbicidal activity is given at values of at least 70)				herbicidal activity against SETVI ([2]; application rate 2000 g/ha): good (A good herbicidal activity is given at values of at least 70)
Brc1cccnc1-c1cnc(C2CC2)nc1-c1ccco1 [Ex.8]			very good (a very good herbicidal activity is given at values of at least 85)			
Brc1cccnc1-c1cnc(C2CC2)nc1-c1ccco1 [Ex.10]	good (A good herbicidal activity is given at values of at least 70)					
Cc1nc(C)c(-c2nc(C3CC3)ncc2-c2ncccc2Cl)o1 [Ex.46]		very good (a very good herbicidal activity is given at values of at least 85)	very good (a very good herbicidal activity is given at values of at least 85)	very good (a very good herbicidal activity is given at values of at least 85)	very good (a very good herbicidal activity is given at values of at least 85)	herbicidal activity against SETVI ([2]; application rate 2000 g/ha): very good (a very good herbicidal activity is given at values of at least 85)
OC(Cc1nc(C2CC2)ncc1-c1ncccc1Cl)c1ccoc1 (centres unmarked) [Ex.38]		very good (a very good herbicidal activity is given at values of at least 85)		very good (a very good herbicidal activity is given at values of at least 85)		
OC1(Cc2nc(C3CC3)ncc2-c2ncccc2Cl)CCCC1 [Ex.26]						herbicidal activity against SETVI ([2]; application rate 2000 g/ha): very good (a very good herbicidal activity is given at values of at least 85)
CCOC(=O)Cc1nc(C2CC2)ncc1-c1ncccc1Cl [Ex.20]	very good (a very good herbicidal activity is given at values of at least 85)	very good (a very good herbicidal activity is given at values of at least 85)		very good (a very good herbicidal activity is given at values of at least 85)	very good (a very good herbicidal activity is given at values of at least 85)	
